Results as given in ChEMBL document CHEMBL1143986, “Probing lipid- and drug-binding domains with fluorescent dyes” (Bioorg Med Chem, 2008).

Columns and labels:
[1] = Aqueous solubility of the compound; assay type: physicochemical
[2] = biological target: Albumin (Bos taurus, UniProt P02769); experiment: Binding affinity to bovine serum albumin
Chain of Albumin (P02769 whole entry): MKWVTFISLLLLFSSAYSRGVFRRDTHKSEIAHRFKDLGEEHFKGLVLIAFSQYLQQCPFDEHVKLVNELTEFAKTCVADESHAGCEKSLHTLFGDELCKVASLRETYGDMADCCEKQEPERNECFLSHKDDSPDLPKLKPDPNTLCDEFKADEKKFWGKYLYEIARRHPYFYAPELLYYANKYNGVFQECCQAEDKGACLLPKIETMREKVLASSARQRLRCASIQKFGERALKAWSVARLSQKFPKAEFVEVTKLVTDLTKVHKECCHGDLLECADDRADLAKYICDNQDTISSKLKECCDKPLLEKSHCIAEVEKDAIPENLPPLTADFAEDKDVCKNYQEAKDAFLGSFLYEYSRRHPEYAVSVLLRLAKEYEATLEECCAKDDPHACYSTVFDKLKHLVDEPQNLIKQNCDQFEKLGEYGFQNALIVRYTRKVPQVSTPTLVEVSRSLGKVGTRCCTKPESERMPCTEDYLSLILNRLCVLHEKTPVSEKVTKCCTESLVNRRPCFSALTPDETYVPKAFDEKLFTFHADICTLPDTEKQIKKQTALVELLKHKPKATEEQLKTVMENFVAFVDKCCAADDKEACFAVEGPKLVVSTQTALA

| solubility [1] | EC50 [2] | SMILES |
| --- | --- | --- |
| > 100 µM | – | CCN(CC)c1ccc2nc3c4ccc(OCCCC(=O)O)cc4c(=O)cc-3oc2c1 |
| > 100 µM | – | CCN(CC)c1ccc2nc3c4ccc(OCCCC(=O)O)cc4c(=O)c(Br)c-3oc2c1 |
| > 100 µM | 1.5 µM | CCN(CC)c1ccc2nc3c4cc(OCCCC(=O)O)ccc4c(=O)cc-3oc2c1 |
| > 100 µM | – | CCN(CC)c1ccc2nc3c4cc(OCCCC(=O)O)ccc4c(=O)c(Br)c-3oc2c1 |
